Test results published in patent publication US20260263550A1, “METHODS AND COMPOSITIONS FOR TREATING, PREVENTING, INHIBITING, AMELIORATING OR DELAYING THE ONSET OF OPHTHALMIC CONDITIONS” (Stealth BioTherapeutics Inc., priority 2021, published 2026).

Tests used:
[1] = Uptake in plasma and compartments of the eye in a rabbit model (subcutaneous or topical ocular dosing); assay type: in vivo, Dutch Belted Rabbits; conditions: in vivo
Procedure: 3 mg/mL elamipretide or compound of Formula IIa in saline was dosed subcutaneously at 1.5 mg/kg. A 3 mg/mL elamipretide or compound of Formula IIa formulation was prepared by dissolving 81 mg elamipretide in a total volume of 27 mL of sterile saline and mixing well. • (ii) Groups 2 & 4: Topical Ocular Formulation for administration of elamipretide or compound of Formula IIa
For each preparation (i.e., elamipretide or compound of Formula IIa, sodium chloride (105 mg) was dissolved in 16 mL of water for injection with mixing. With mixing, 82.8 mg of sodium phosphate monobasic, monohydrate was then added. With mixing, 0.400 mL of a 5 mg/mL benzalkonium chloride solution in water (to be prepared by diluting 0.100 mL of a 50% benzalkonium chloride solution in water to 10 mL with water for injection) was then added. Two hundred (200) mg of elamipretide or compound of Formula IIa was then added with mixing and the formulation pH was adjusted to 5.8 (+/−0.1) with 1 M sodium hydroxide in water solution. The final volume of the formulation was then be brought to 20 mL using water for injection. Each formulation (elamipretide or compound of Formula IIa) was used for topical ocular administration at a dose of 50 μL/eye OU.
A total of 48 male Dutch Belted Rabbits were used in the study. Each animal was approximately 2 kg.
For subcutaneous administration, rabbits were dosed via a single subcutaneous injection of 1.5 mg/kg and at the scruff of the neck between the shoulder blades using a syringe with an attached 27G×½ inch needle (or similar). The site of injection was checked to ensure no leakage of dose immediately following administration.
For topical administration, a calibrated Gilson positive displacement pipette was used to administer 50 μL of formulation onto the globe the eye while the lower eyelid was pulled away from the globe. Administration was twice daily (i.e., BID). Doses were administered to both eyes, every 8 to 12 hours for 11 total doses.
Terminal blood samples (approximately 6 mL) were collected from two animals/group/timepoint via the central ear artery at approximately 0.5, 1, 2, 4, 8, and 24 hours postdose. Blood samples were collected into tubes containing K2EDTA as the anticoagulant and inverted several times to ensure adequate mixing of blood and anticoagulant and placed on ice. Within 30 min of collection, samples were centrifuged to harvest plasma and stored at −80° C. until analyzed.
Following blood collection, designated animals were euthanized by barbiturate overdose. Following euthanasia, both eyes of each rabbit were harvested and dissected for collection of ocular tissue and fluid. Optic nerve and retina were collected from Group 1 and 3 animals, and aqueous humor, retina, conjunctiva, cornea, sclera, and optic nerve were collected from Group 2 and 4 animals. Following dissection, all fluids and tissues were placed in pre-tared tubes, weight collected, and then flash frozen on dry ice and placed in a freezer at −80° C. or lower until analyzed. Concentrations of test article in plasma in the ocular tissues (ng/g tissue) and fluids (ng/mL fluid) were determined utilizing a method previously developed by the CRO.

[2] = test system: iPSC-derived RPE cells from AMD donors; test: Microarray analysis of gene expression on in vitro Bruch's membrane model; assay type: cell-based, human; conditions: AMD-derived RPE on nitrite-modified ECM, 10, 100, 1000 nM, 24 hours
Procedure: General. iPSC-derived RPE were generated from AMD patients (2 atrophic; 1 exudative) and patients with no history of AMD (n=3). To test the therapeutic efficacy of elamipretide and compound of Formula IIa, cell viability was analyzed on nitrite-modified extracellular matrix (ECM), a typical modification of aged Bruch's membrane, for 24 hrs. DNA microarrays were used to elucidate gene expression in AMD-derived RPE cultured on nitrite-modified ECM.
Microarray analysis. iPSC-derived RPE cells from AMD donors (n=3; 2 atrophic with GA, 1 exudative) were treated with drug (elamipretide or compound of Formula IIa) as described below and cultured on an in vitro Bruch's membrane model for 24 hours.
• AMD donors only (n=3 individual donors) • Cells treated with elamipretide (also referred to as “309” in the figures) at 10 nM, 100 nM and 1000 nM • Cells treated with compound of Formula IIa (also referred to as “146c” in the figures) at 10 nM, 100 nM, 1000 nM
Microarray studies using Affymetrix GeneChip Human Clariom™ S Assay were performed as described in Gong et al. (2020).

[3] = 10-day SC study in-life assessments (mortality, body weight, tolerability); assay type: in vivo, cynomolgus monkey
Procedure: Administration of Compound of Formula IIa. The test agent (compound of formula IIa) was administered daily via subcutaneous injection into the scapular and mid-dorsal areas for 10 days. The first day of dosing was designated as Day 1. Dose formulations were allowed to warm up at ambient temperature for at least 30 minutes prior to dosing, as appropriate. The animals were temporarily restrained for dose administration and were not sedated. The volume for each dose was administered over 1 (preferred) or 2 (as necessary) separated injections within the designated area. If a designated injection site was not available for a given animal on any day, the next available test site in the rotation was used. The injection area was marked as frequently as required to allow appropriate visualization of administration sites. On the last injection occasion for each quadrant, the last site of injection was circled, and the circled site was collected for necropsy.
In-life procedures, observations, and measurements.

[4] = SC 5 mg/kg/day for 10 days, 3 males

Cc1cc(O)cc(C)c1C[C@H](NC(=O)[C@H](N)CCCNC(=N)N)C(=O)N[C@@H](CCCCN)c1nc(Cc2ccccc2)no1.Cl.Cl.Cl [Formula IIa, (R)-2-amino-N—((S)-1-(((S)-5-amino-1-(3-benzyl-1,2,4-oxadiazol-5-yl)pentyl)amino)-3-(4-hydroxy-2,6-dimethylphenyl)-1-oxopropan-2-yl)-5-guanidinopentanamide]
accumulation in eye tissues (retina, conjunctiva, cornea, aqueous humor, optic nerve head) compared with elamipretide [1]: higher concentration
concentration in the eye tissue examined compared with elamipretide (conjunctiva, cornea, aqueous humor, optical nerve head) [1]: higher
concentration in plasma, elamipretide compared with compound of Formula IIa ([1]; 1.5 mg/kg): roughly equivalent
expression of complement regulatory genes including CFHR2 ([2]; FIG. 8S): increase expression
expression of complement component genes (C1R, C3, C4A) increased by nitration of ECM ([2]; FIGS. 8L-8P): reverse this trend
expression of mitochondrial-related genes, such as CYP24A1 and GLS ([2]; FIGS. 8W-8Z): altered the expression
tolerability of administration by subcutaneous injection ([3]; 5 mg/kg/day for 10 days): well-tolerated
body weights, differences related to administration [3, 4]: no differences in body weights
mortality during the study [3, 4]: no mortality
